Test results: patent US8592359B2 (priority 2010, dated 2013)

Test system: amylase Stainzyme® 12,0 1
Test: Residual amylolytic activity after storage in a liquid washing agent (starch / dinitrosalicylic acid)
Format: biochemical
Conditions: 1 wt % stabilizer, 4 weeks at 30° C., initial activity 100%
Text: A liquid washing agent of the following composition serves as a baseline washing agent formulation (all indications in percent by weight): 0.3 to 0.5% xanthan, 0.2 to 0.4% antifoaming agent, 6 to 7% glycerol, 0.3 to 0.5% ethanol, 4 to 7% FAEOS (fatty alcohol ether sulfate), 24 to 28% nonionic surfactants, 1 to 2% sodium citrate (dihydrate), 2 to 4% soda, 14 to 16% coconut fatty acids, 0.5% HEDP (1-hydroxyethane-(1,1-diphosphonic acid)), 0 to 0.4% PVP (polyvinylpyrrolidone), 0 to 0.05% optical brightener, 0 to 0.001% dye, remainder demineralized water.
The monosaccharide glycerate glucosyl glycerate was incorporated, as the component stabilizing the hydrolytic enzyme, into the baseline washing agent formulation according to Example 2 (see Table 2, indications in this regard in wt %). […] The amylase used was the Stainzyme® 12,0 1 product of the company Novozymes A/S. The amylase was used in the washing agent either alone or in combination with the protease of Example 2 (utilization quantity: 1.0 wt % amylase and/or 1.0 wt % protease, respectively active substance).
After storage, the respective residual amylolytic activity was determined by incubating the samples under defined reaction conditions (tris-maleate buffer, pH 6.5, 50° C., 15 min) with 0.67% starch (FLUKA no. 85642, from potatoes, soluble, pretreated per Zulkowsky (treated with glycerol at 190° C.)). […]

residual amylolytic activity after storage (with protease (1.0 wt %)): 92%
residual amylolytic activity after storage (without protease): 97%
Structure (SMILES): OB(O)O [boric acid]
